Patent publication US20070049564A1 (Wyeth, priority 2005, published 2007)
≈ marks a conversion by molar mass, not a printed value. Read-outs that look alike come from different tables or passages of the source.

Tests used:
E. coli GC 2236 = assay: MIC, broth microdilution; settings: Escherichia coli
E. coli GC 2232 = assay: MIC, broth microdilution; settings: Escherichia coli
E. coli GC 2234 = assay: MIC, broth microdilution; settings: Escherichia coli
E. coli GC 2271 = assay: MIC, broth microdilution; settings: Escherichia coli
E. coli GC 2272 = assay: MIC, broth microdilution; settings: Escherichia coli
E. coli GC 4559 = assay: MIC, broth microdilution; settings: Escherichia coli
E. coli GC 3226 = assay: MIC, broth microdilution; settings: Escherichia coli
E. coli GC 2203 = assay: MIC, broth microdilution; settings: Escherichia coli
P. aeruginosa GC 2214 = assay: MIC, broth microdilution; settings: Pseudomonas aeruginosa
S. aureus GC 1131 = assay: MIC, broth microdilution; settings: Staphylococcus aureus
S. aureus GC 6335 = assay: MIC, broth microdilution; settings: Staphylococcus aureus
S. epidermidis GC 4935 = assay: MIC, broth microdilution; settings: Staphylococcus epidermidis
E. faecalis GC 4555 = assay: MIC, broth microdilution; settings: Enterococcus faecalis
E. faecalis GC 2265 = assay: MIC, broth microdilution; settings: Enterococcus faecalis
E. faecalis GC 2267 = assay: MIC, broth microdilution; settings: Enterococcus faecalis
S. pneumoniae* GC 4465 = assay: MIC, broth microdilution; settings: Streptococcus pneumoniae
S. pneumoniae+ GC 4465 = assay: MIC, broth microdilution; settings: Streptococcus pneumoniae
S. pyogenes GC 4563 = assay: MIC, broth microdilution; settings: Streptococcus pyogenes
S. agalactiae GC 4564 = assay: MIC, broth microdilution; settings: Streptococcus agalactiae
Staph. aureus Smith = assay: In vivo activity (oral, iv; ED50) against Staph. aureus Smith in mice
Protocol: Representative examples of compounds of Formula I were tested for the oral efficacy using S. aureus Smith in mice.

[1] = read-out: MINIMAL INHIBITORY CONCENTRATION MIC, Human Serum
[2] = read-out: MINIMAL INHIBITORY CONCENTRATION MIC, Mouse Serum
[3] = read-out: MINIMAL INHIBITORY CONCENTRATION MIC, Water

CN(C)c1cc(NC(=O)CN(C(=O)OCOC(=O)C2CCCCC2)C(C)(C)C)c(O)c2c1C[C@H]1C[C@H]3[C@H](N(C)C)C(O)=C(C(N)=O)C(=O)[C@@]3(O)C(O)=C1C2=O [Example 50, ({[(2-{[(5aR,6aS,7S,10aS)-9-(aminocarbonyl)-4,7-bis(dimethylamino)-1,8,10a,11-tetrahydroxy-10,12-dioxo-5,5a,6,6a,7,10,10a,12-octahydrotetracen-2-yl]amino}-2-oxoethyl)(tert-butyl)amino]carbonyl}oxy)methyl cyclohexanecarboxylate]
MIC (E. coli GC 2236; GC2236, read-out: MINIMAL INHIBITORY CONCENTRATION MIC, Human Serum): 8 µg/mL (≈ 10.4 µM)
MIC (E. coli GC 2236; GC2236, read-out: MINIMAL INHIBITORY CONCENTRATION MIC, Mouse Serum): 1 µg/mL (≈ 1.3 µM)
MIC (E. coli GC 2236; GC2236, read-out: MINIMAL INHIBITORY CONCENTRATION MIC, Water): 32 µg/mL (≈ 41.6 µM)
MIC (E. coli GC 2232; GC2232, read-out: MINIMAL INHIBITORY CONCENTRATION MIC, Human Serum): 8 µg/mL (≈ 10.4 µM)
MIC (E. coli GC 2232; GC2232, read-out: MINIMAL INHIBITORY CONCENTRATION MIC, Mouse Serum): 1 µg/mL (≈ 1.3 µM)
MIC (E. coli GC 2232; GC2232, read-out: MINIMAL INHIBITORY CONCENTRATION MIC, Water): 32 µg/mL (≈ 41.6 µM)
MIC (E. coli GC 2234; GC2234, read-out: MINIMAL INHIBITORY CONCENTRATION MIC, Human Serum): 8 µg/mL (≈ 10.4 µM)
MIC (E. coli GC 2234; GC2234, read-out: MINIMAL INHIBITORY CONCENTRATION MIC, Mouse Serum): 1 µg/mL (≈ 1.3 µM)
MIC (E. coli GC 2234; GC2234, read-out: MINIMAL INHIBITORY CONCENTRATION MIC, Water): 64 µg/mL (≈ 83.1 µM)
MIC (E. coli GC 2271; GC2271, read-out: MINIMAL INHIBITORY CONCENTRATION MIC, Human Serum): 4 µg/mL (≈ 5.2 µM)
MIC (E. coli GC 2271; GC2271, read-out: MINIMAL INHIBITORY CONCENTRATION MIC, Mouse Serum): 1 µg/mL (≈ 1.3 µM)
MIC (E. coli GC 2271; GC2271, read-out: MINIMAL INHIBITORY CONCENTRATION MIC, Water): 32 µg/mL (≈ 41.6 µM)
MIC (E. coli GC 2272; GC2272, read-out: MINIMAL INHIBITORY CONCENTRATION MIC, Human Serum): 4 µg/mL (≈ 5.2 µM)
MIC (E. coli GC 2272; GC2272, read-out: MINIMAL INHIBITORY CONCENTRATION MIC, Mouse Serum): 1 µg/mL (≈ 1.3 µM)
MIC (E. coli GC 2272; GC2272, read-out: MINIMAL INHIBITORY CONCENTRATION MIC, Water): 32 µg/mL (≈ 41.6 µM)
MIC (E. coli GC 4559; GC4559, read-out: MINIMAL INHIBITORY CONCENTRATION MIC, Human Serum): 16 µg/mL (≈ 20.8 µM)
MIC (E. coli GC 4559; GC4559, read-out: MINIMAL INHIBITORY CONCENTRATION MIC, Mouse Serum): 2 µg/mL (≈ 2.6 µM)
MIC (E. coli GC 4559; GC4559, read-out: MINIMAL INHIBITORY CONCENTRATION MIC, Water): 64 µg/mL (≈ 83.1 µM)
MIC (E. coli GC 3226; GC3226, read-out: MINIMAL INHIBITORY CONCENTRATION MIC, Human Serum): 8 µg/mL (≈ 10.4 µM)
MIC (E. coli GC 3226; GC3226, read-out: MINIMAL INHIBITORY CONCENTRATION MIC, Mouse Serum): 1 µg/mL (≈ 1.3 µM)
MIC (E. coli GC 3226; GC3226, read-out: MINIMAL INHIBITORY CONCENTRATION MIC, Water): 32 µg/mL (≈ 41.6 µM)
MIC (E. coli GC 2203; GC2203, read-out: MINIMAL INHIBITORY CONCENTRATION MIC, Human Serum): 8 µg/mL (≈ 10.4 µM)
MIC (E. coli GC 2203; GC2203, read-out: MINIMAL INHIBITORY CONCENTRATION MIC, Mouse Serum): 1 µg/mL (≈ 1.3 µM)
MIC (E. coli GC 2203; GC2203, read-out: MINIMAL INHIBITORY CONCENTRATION MIC, Water): 32 µg/mL (≈ 41.6 µM)
MIC (P. aeruginosa GC 2214; GC2214, read-out: MINIMAL INHIBITORY CONCENTRATION MIC, Human Serum): > 64 µg/mL
MIC (P. aeruginosa GC 2214; GC2214, read-out: MINIMAL INHIBITORY CONCENTRATION MIC, Mouse Serum): 32 µg/mL (≈ 41.6 µM)
MIC (P. aeruginosa GC 2214; GC2214, read-out: MINIMAL INHIBITORY CONCENTRATION MIC, Water): > 64 µg/mL
MIC (S. aureus GC 1131; GC1131, read-out: MINIMAL INHIBITORY CONCENTRATION MIC, Human Serum): 0.5 µg/mL (≈ 0.649 µM)
MIC (S. aureus GC 1131; GC1131, read-out: MINIMAL INHIBITORY CONCENTRATION MIC, Mouse Serum): 0.5 µg/mL (≈ 0.649 µM)
MIC (S. aureus GC 1131; GC1131, read-out: MINIMAL INHIBITORY CONCENTRATION MIC, Water): 1 µg/mL (≈ 1.3 µM)
MIC (S. aureus GC 6335; GC6335, read-out: MINIMAL INHIBITORY CONCENTRATION MIC, Human Serum): 1 µg/mL (≈ 1.3 µM)
MIC (S. aureus GC 6335; GC6335, read-out: MINIMAL INHIBITORY CONCENTRATION MIC, Mouse Serum): 1 µg/mL (≈ 1.3 µM)
MIC (S. aureus GC 6335; GC6335, read-out: MINIMAL INHIBITORY CONCENTRATION MIC, Water): 1 µg/mL (≈ 1.3 µM)
MIC (S. epidermidis GC 4935; GC4935, read-out: MINIMAL INHIBITORY CONCENTRATION MIC, Human Serum): 2 µg/mL (≈ 2.6 µM)
MIC (S. epidermidis GC 4935; GC4935, read-out: MINIMAL INHIBITORY CONCENTRATION MIC, Mouse Serum): 2 µg/mL (≈ 2.6 µM)
MIC (S. epidermidis GC 4935; GC4935, read-out: MINIMAL INHIBITORY CONCENTRATION MIC, Water): 4 µg/mL (≈ 5.2 µM)
MIC (E. faecalis GC 4555; GC4555, read-out: MINIMAL INHIBITORY CONCENTRATION MIC, Human Serum): 2 µg/mL (≈ 2.6 µM)
MIC (E. faecalis GC 4555; GC4555, read-out: MINIMAL INHIBITORY CONCENTRATION MIC, Mouse Serum): 1 µg/mL (≈ 1.3 µM)
MIC (E. faecalis GC 4555; GC4555, read-out: MINIMAL INHIBITORY CONCENTRATION MIC, Water): 4 µg/mL (≈ 5.2 µM)
MIC (E. faecalis GC 2265; GC2265, read-out: MINIMAL INHIBITORY CONCENTRATION MIC, Human Serum): 2 µg/mL (≈ 2.6 µM)
MIC (E. faecalis GC 2265; GC2265, read-out: MINIMAL INHIBITORY CONCENTRATION MIC, Mouse Serum): 1 µg/mL (≈ 1.3 µM)
MIC (E. faecalis GC 2265; GC2265, read-out: MINIMAL INHIBITORY CONCENTRATION MIC, Water): 4 µg/mL (≈ 5.2 µM)
MIC (E. faecalis GC 2267; GC2267, read-out: MINIMAL INHIBITORY CONCENTRATION MIC, Human Serum): 2 µg/mL (≈ 2.6 µM)
MIC (E. faecalis GC 2267; GC2267, read-out: MINIMAL INHIBITORY CONCENTRATION MIC, Mouse Serum): 1 µg/mL (≈ 1.3 µM)
MIC (E. faecalis GC 2267; GC2267, read-out: MINIMAL INHIBITORY CONCENTRATION MIC, Water): 4 µg/mL (≈ 5.2 µM)
MIC (S. pneumoniae* GC 4465; [1]): < 0.06 µg/mL
MIC (S. pneumoniae* GC 4465; [2]): < 0.06 µg/mL
MIC (S. pneumoniae* GC 4465; [3]): < 0.06 µg/mL
MIC (S. pneumoniae+ GC 4465; [1]): 0.5 µg/mL (≈ 0.649 µM)
MIC (S. pneumoniae+ GC 4465; [2]): 0.5 µg/mL (≈ 0.649 µM)
MIC (S. pneumoniae+ GC 4465; [3]): 0.5 µg/mL (≈ 0.649 µM)
MIC (S. pyogenes GC 4563; GC4563, read-out: MINIMAL INHIBITORY CONCENTRATION MIC, Human Serum): 0.12 µg/mL (≈ 0.156 µM)
MIC (S. pyogenes GC 4563; GC4563, read-out: MINIMAL INHIBITORY CONCENTRATION MIC, Mouse Serum): 0.12 µg/mL (≈ 0.156 µM)
MIC (S. pyogenes GC 4563; GC4563, read-out: MINIMAL INHIBITORY CONCENTRATION MIC, Water): 0.25 µg/mL (≈ 0.325 µM)
MIC (S. agalactiae GC 4564; GC4564, read-out: MINIMAL INHIBITORY CONCENTRATION MIC, Human Serum): 0.25 µg/mL (≈ 0.325 µM)
MIC (S. agalactiae GC 4564; GC4564, read-out: MINIMAL INHIBITORY CONCENTRATION MIC, Mouse Serum): 0.25 µg/mL (≈ 0.325 µM)
MIC (S. agalactiae GC 4564; GC4564, read-out: MINIMAL INHIBITORY CONCENTRATION MIC, Water): 0.25 µg/mL (≈ 0.325 µM)
ED50 (Staph. aureus Smith; Staphylococcus aureus, in Mus musculus, iv, read-out: ED50 SIV (Staph aureus Smith)): 1.65 mg/kg
ED50 (Staph. aureus Smith; Staphylococcus aureus, in Mus musculus, po, read-out: ED50 SOD (Staph aureus Smith)): 16.9 mg/kg
ED50 (Staph. aureus Smith; Staphylococcus aureus, in Mus musculus, po, read-out: ED50 Staph Smith SOD): 16.9 mg/kg
ED50 (Staph. aureus Smith; iv, read-out: ED50 Staph Smith SIV): 1.65 mg/kg
